Test results published in US6552014B2, “Methods of inhibiting platelet activation with selective serotonin reuptake inhibitors” (HeartDrug Research, L.L.C., priority 1999, dated 2003).

How the values were obtained:
Type in all cases: cell-based, human
[1] = test system: GP IIb; assay: Flow cytometry of platelet antigen expression, platelet rich plasma; conditions: PRP
Source text: (§1) For ex vivo assessment of the SSRIs effect on a PAM, a level of a PAM can be assessed by flow cytometry by first obtaining a sample that comprises platelets and then contacting the sample with a platelet activation agonist, such as phorbol myristate acetate (PMA), ADP (adenosine diphosphate), thrombin, collagen, and/or TRAP (thrombin receptor activating peptide), under conditions suitable for activation of platelets in the sample. The sample is in contact with the agonist preferably for a period of time effective to maximally activate the platelets. […] NDMS at 31.1, 64.1 or 143 ng./ml). Then one contacts or stains the samples with a composition that comprises an anti-PAM antibody e.g., having a fluorescent label, preferably in an amount in excess of that required to bind the PAM expressed on the platelets, under conditions suitable for the formation of labeled complexes between the anti-PAM antibody and activated platelets. Then the formation of the complex in the sample is determined (detected or measured). […] The blood-ACD mixture was centrifuged at 1000 r.p.m. for 10 minutes at room temperature. […] The PRP was then centrifuged at 3000 r.p.m. for 10 minutes. […] All cells were then divided into ten plastic capped tubes. Nine portions of washed platelets were incubated with 5 μfluorescein isothiocyanate (FITC)-conjugated antibodies in the dark at +4 °C for 30 minutes, and one part remained unstained and served as a negative control. Surface antigen expression was measured with monoclonal murine anti-human antibodies: CD9 (p24); CD41a (IIb/IIIa, aIIIbb3); CD42b (Ib); CD61(IIIa) (DAKO Corporation, Carpinteria Calif.); CD49b (VLA-2, or a2b1); CD62p (P-selectin); CD31 (PECAM-1); […] The instrument was calibrated daily with fluorescence beads (CaliBRITE; Becton Dickinson) and measured FITC-conjugated fluorescence intensity. All parameters were obtained using four decade logarithmic amplification. The data was collected and stored in list mode, and then analyzed using CELLQuest® (version 1.2.2) software. Procedures are described in detail in (Gurbel, P. […] Serebruany, V. […] Gurbel, P. A. et al., Coron Artery Dis 9: 451-456 (1998) and Serebruany, V. L. et al., Arterioscl Thromb Vasc Biol 19: 153-158 (1999)). The data in table 1 was obtained using the methods described herein, and in particular, in Examples 1 and 2. The levels of various PAMs were assess from samples of human volunteers.

[2] = test system: GP Ib; assay: as above; conditions: for GP Ib (mean) log fluorescence intensity / GP Ib (peak) log fluorescence intensity: PRP
Source text: as §1

[3] = test system: GP IIb/IIIa; assay: Whole blood flow cytometry; conditions: for GP IIb/IIIa (mean) log fluorescence intensity / GP IIb/IIIa (peak) log fluorescence intensity: Whole Blood; for GPIIb/IIIa expression (FIG. 1), in words: sertraline 18.1, 44.7 or 85.3 ng/ml, NDMS 31.1, 64.1, 143.0 ng/ml; for GPIIb/IIIa expression (FIG. 7), in words: whole blood, post-coronary angioplasty patient, increasing concentrations
Source text: For ex vivo assessment of the SSRIs effect on a PAM, a level of a PAM can be assessed by flow cytometry by first obtaining a sample that comprises platelets and then contacting the sample with a platelet activation agonist, such as phorbol myristate acetate (PMA), ADP (adenosine diphosphate), thrombin, collagen, and/or TRAP (thrombin receptor activating peptide), under conditions suitable for activation of platelets in the sample. The sample is in contact with the agonist preferably for a period of time effective to maximally activate the platelets. […] Then one contacts or stains the samples with a composition that comprises an anti-PAM antibody e.g., having a fluorescent label, preferably in an amount in excess of that required to bind the PAM expressed on the platelets, under conditions suitable for the formation of labeled complexes between the anti-PAM antibody and activated platelets. Then the formation of the complex in the sample is determined (detected or measured).
Four cc of blood was collected in a tube, containing 2 cc of acid-citrate-dextrose (ACD) (7.3 g citric acid, 22.0 g sodium citrate×2H2O and 24.5 glucose in a total amount of 1000 mL distilled water) and mixed well. The buffer, TBS (10 mM Tris, 0.15 M NaCl, pH 7.4) and the following fluorescein isothiocyanate (FITC) conjugated monoclonal antibodies (PharMingen, San Diego, Calif. USA, and DAKO, Calif., USA) were removed from a refrigerator and allowed to warm at room temperature (RT): CD41 (IIb/IIIa), CD31 (PECAM-1), CD62p (P-selectin), CD51/61 (Vitronectin receptor). Six amber tubes (1.25 ml) were obtained and marked. One Eppendorf tube (1.5 ml) was labeled with “Dill WB”, Patient ID #, Initial and Date. The amber tubes and Eppendorf tube were placed in the rack. […] of TBS buffer was pipetted to the labeled Eppendorf tube. The patient's whole blood tube was inverted gently twice to mix. 50 μl of whole blood was pipetted to the “Dill WB” labeled Eppendorf tube. The Eppendorf tube was capped and the diluted whole blood was mixed by inverting the Eppendorf tube gently two times 50 μl of diluted whole blood was pipetted to each amber tube. 5 μl of appropriate antibody was pipetted to the bottom of the corresponding amber tube. The tubes were covered with aluminum foil and incubated at 4° C. for 30 minutes. After incubation, 400 μl of 2% buffered paraformaldehyde was added. To prepare 2% Paraformaldehyde:Dilute 1 part 10% paraformaldehyde with 4 parts TBS. This solution was stored at 4° C. for up to one week. The amber tubes were closed with a lid tightly and stored in a refrigerator at 4° C. until the flow cytometric analysis. The samples are analyzed on a Becton Dickinson FACScan flow cytometer. The instrument is set up to measure forward light scatter (FSC), and FITC fluorescence. All parameters are collected using four decade logarithmic amplification.
The data in table 1 was obtained using the methods described herein, and in particular, in Examples 1 and 2. The levels of various PAMs were assess from samples of human volunteers. […] Baseline levels of the PAMs were also obtained (without exposure to sertraline or NDMS).

[4] = healthy volunteers, sertraline 18.1 ng/ml
[5] = healthy volunteers, sertraline 44.7 ng/ml
[6] = healthy volunteers, sertraline 85.3 ng/ml
[7] = post-angioplasty patient on aspirin, sertraline 18.1 ng/ml
[8] = post-angioplasty patient on aspirin, sertraline 44.7 ng/ml
[9] = post-angioplasty patient on aspirin, sertraline 85.3 ng/ml
[10] = whole blood from a healthy volunteer
[11] = healthy volunteers, desmethylsertraline 31.1 ng/ml
[12] = healthy volunteers, desmethylsertraline 64.2 ng/ml
[13] = healthy volunteers, desmethylsertraline 143 ng/ml
[14] = post-angioplasty patient on aspirin, desmethylsertraline 31.1 ng/ml
[15] = post-angioplasty patient on aspirin, desmethylsertraline 64.2 ng/ml
[16] = post-angioplasty patient on aspirin, desmethylsertraline 143 ng/ml

`CN[C@H]1CC[C@@H](c2ccc(Cl)c(Cl)c2)c2ccccc21` [sertraline] was tested, and the “GP IIb (mean) log fluorescence intensity” value [1, 4] was 31, the “GP IIb (peak) log fluorescence intensity” value [1, 4] was 26 and the “GP IIb (mean) log fluorescence intensity” value [1, 5] was 31. The “GP IIb (peak) log fluorescence intensity” value [1, 5] was 35, the “GP IIb (mean) log fluorescence intensity” value [1, 6] was 30 and the “GP IIb (peak) log fluorescence intensity” value [1, 6] was 22. The “GP IIb (mean) log fluorescence intensity” value [1, 7] was 30, the “GP IIb (peak) log fluorescence intensity” value [1, 7] was 29 and the “GP IIb (mean) log fluorescence intensity” value [1, 8] was 27. For the same compound, the “GP IIb (peak) log fluorescence intensity” value [1, 8] was 31, the “GP IIb (mean) log fluorescence intensity” value [1, 9] was 37 and the “GP IIb (peak) log fluorescence intensity” value [1, 9] was 34. The “GPIb expression, flow cytometric graph (FIG. 8), in words” value ([2]; 18.1, 44.7 or 85.5 ng/mL of sertraline) was “dose dependent decrease in the expression”, the “GP Ib (mean) log fluorescence intensity” value [2, 4] was 139 and the “GP Ib (peak) log fluorescence intensity” value [2, 4] was 125. For the same compound, the “GP Ib (mean) log fluorescence intensity” value [2, 5] was 97, the “GP Ib (peak) log fluorescence intensity” value [2, 5] was 74 and the “GP Ib (mean) log fluorescence intensity” value [2, 6] was 65. The “GP Ib (peak) log fluorescence intensity” value [2, 6] was 67, the “GP Ib (mean) log fluorescence intensity” value [2, 7] was 324 and the “GP Ib (peak) log fluorescence intensity” value [2, 7] was 305. For the same compound, the “GP Ib (mean) log fluorescence intensity” value [2, 8] was 220, the “GP Ib (peak) log fluorescence intensity” value [2, 8] was 257 and the “GP Ib (mean) log fluorescence intensity” value [2, 9] was 182. The “GP Ib (peak) log fluorescence intensity” value [2, 9] was 186, the “surface expression of GPIb, in words” value ([2]; plasma concentration 85.3 ng/ml, equivalent to 200 mg/daily) was “diminished surface expression” and the “GP IIb/IIIa (mean) log fluorescence intensity” value [3, 4] was 479. For the same compound, the “GP IIb/IIIa (peak) log fluorescence intensity” value [3, 4] was 418, the “GP IIb/IIIa (mean) log fluorescence intensity” value [3, 5] was 476 and the “GP IIb/IIIa (peak) log fluorescence intensity” value [3, 5] was 437. For the same compound, the “GP IIb/IIIa (mean) log fluorescence intensity” value [3, 6] was 498, the “GP IIb/IIIa (peak) log fluorescence intensity” value [3, 6] was 437 and the “GP IIb/IIIa (mean) log fluorescence intensity” value [3, 7] was 252. The “GP IIb/IIIa (peak) log fluorescence intensity” value [3, 7] was 266, the “GP IIb/IIIa (mean) log fluorescence intensity” value [3, 8] was 230 and the “GP IIb/IIIa (peak) log fluorescence intensity” value [3, 8] was 244. For the same compound, the “GP IIb/IIIa (mean) log fluorescence intensity” value [3, 9] was 198, the “GP IIb/IIIa (peak) log fluorescence intensity” value [3, 9] was 217 and the “GPIIb/IIIa expression (FIG. 1), in words” value [3, 10] was “dose dependent decrease in the expression”. The “GPIIb/IIIa expression (FIG. 7), in words” value [3] was “striking decreases in expression”.

For `N[C@H]1CC[C@@H](c2ccc(Cl)c(Cl)c2)c2ccccc21` [Desmethyl sertraline, N-desmethylsertraline], the “GP IIb (mean) log fluorescence intensity” value [1, 11] was 33, the “GP IIb (peak) log fluorescence intensity” value [1, 11] was 31 and the “GP IIb (peak) log fluorescence intensity” value [1, 12] was 31. The “GP IIb (mean) log fluorescence intensity” value [1, 13] was 30, the “GP IIb (peak) log fluorescence intensity” value [1, 13] was 35 and the “GP IIb (mean) log fluorescence intensity” value [1, 14] was 24. For the same compound, the “GP IIb (peak) log fluorescence intensity” value [1, 14] was 21, the “GP IIb (mean) log fluorescence intensity” value [1, 15] was 22 and the “GP IIb (mean) log fluorescence intensity” value [1, 16] was 29. For the same compound, the “GP IIb (peak) log fluorescence intensity” value [1, 16] was 25, the “GP Ib (mean) log fluorescence intensity” value [2, 11] was 146 and the “GP Ib (peak) log fluorescence intensity” value [2, 11] was 94. The “GP Ib (mean) log fluorescence intensity” value [2, 12] was 299, the “GP Ib (peak) log fluorescence intensity” value [2, 12] was 266 and the “GP Ib (mean) log fluorescence intensity” value [2, 13] was 309. For the same compound, the “GP Ib (peak) log fluorescence intensity” value [2, 13] was 336, the “GP Ib (mean) log fluorescence intensity” value [2, 14] was 167 and the “GP Ib (peak) log fluorescence intensity” value [2, 14] was 165. The “GP Ib (mean) log fluorescence intensity” value [2, 15] was 198, the “GP Ib (peak) log fluorescence intensity” value [2, 15] was 167 and the “GP Ib (mean) log fluorescence intensity” value [2, 16] was 222. The “GP Ib (peak) log fluorescence intensity” value [2, 16] was 201, the “GP IIb/IIIa (mean) log fluorescence intensity” value [3, 11] was 346 and the “GP IIb/IIIa (peak) log fluorescence intensity” value [3, 11] was 340. For the same compound, the “GP IIb/IIIa (mean) log fluorescence intensity” value [3, 12] was 403, the “GP IIb/IIIa (peak) log fluorescence intensity” value [3, 12] was 355 and the “GP IIb/IIIa (mean) log fluorescence intensity” value [3, 13] was 314. The “GP IIb/IIIa (peak) log fluorescence intensity” value [3, 13] was 264, the “GP IIb/IIIa (mean) log fluorescence intensity” value [3, 14] was 277 and the “GP IIb/IIIa (peak) log fluorescence intensity” value [3, 14] was 268. For the same compound, the “GP IIb/IIIa (mean) log fluorescence intensity” value [3, 15] was 219, the “GP IIb/IIIa (peak) log fluorescence intensity” value [3, 15] was 245 and the “GP IIb/IIIa (mean) log fluorescence intensity” value [3, 16] was 242. The “GP IIb/IIIa (peak) log fluorescence intensity” value [3, 16] was 232, the “GPIIb/IIIa expression, NDMS compared with sertraline (FIG. 1)” value [3, 10] was “more effectively decreased the expression of GPIIb/IIIa” and the “GPIIb/IIIa expression (FIG. 1), in words” value [3, 10] was “dose dependent decrease in the expression”. The “GPIIb/IIIa expression (FIG. 7), in words” value [3] was “striking decreases in expression”.
